Starred links: 1 amine or outer side, 2 acyl side, 3 side chain; linkers in the order of their positions; H or OH if unused. Non-standard residues stand in square brackets, D forms with d. Residues, ends and D or L forms follow the SMILES beside them. Groups on a side chain read outwards from the residue. *: point of attachment. C20 diacid = O=C(O)CCCCCCCCCCCCCCCCCCC(=O)*; C18 diacid = O=C(O)CCCCCCCCCCCCCCCCC(=O)*; γGlu = O=C(O)[C@H](CCC(=O)[*:2])N[*:1]; αMeF = C[C@](N)(Cc1ccccc1)C(=O)O; AEEA = NCCOCCOCC(=O)O; Aib = CC(C)(N)C(=O)O
How the values were obtained:
[1] = molecular target: human GLP-1 receptor (hGLP-1R) (Homo sapiens, UniProt P43220); test: cAMP production (HTRF) in CHO cells expressing hGLP-1R; assay type: cell-based; set-up: expressed in transfected cells; settings: for EC50: Table 6, peptides modified at position 17, cAMP in CHO hGLP-1R cells, geometric mean, read-out: hGLP-1R EC50; for % Relative Potency Ratio: % GLP-1R activity relative to GLP-1 / % GlucR activity relative to glucagon
Procedure: (§1) Cells were re-suspended in assay buffer at a batch-dependent optimized concentration (typically hGLP-1R cells at 1×10^5 cells/mL, hGCGR cells at 2×10^5 cells/mL).
(§2) Cells were added to the assay plate using a multidrop dispenser and incubated at room temperature for 30 minutes before measuring the cAMP level using a cAMP dynamic 2 homogeneous time resolved Fluorescence (HTRF) kit (Cisbio Bioassays #62AM4PEJ) following the two-step protocol as per manufacturer's recommendations. In brief, anti-cAMP cryptate (donor fluorophore) and cAMP-d2 (acceptor fluorophore) were made up separately by diluting each 1 in 20 in conjugate and lysis buffer provided in the kit. Anti-CAMP cryptate was added to all wells of the assay plate, followed by cAMP-d2 added to all wells except non-specific binding (NSB) wells (to which conjugate and lysis buffer was added).
(§3) Data was transformed to % Delta F as described in the manufacturer's guidelines and analyzed by 4-parameter logistic fit to determine EC50 values.

[2] = molecular target: human glucagon receptor (hGCGR) (Homo sapiens, UniProt P47871); test: cAMP production (HTRF) in CHO cells expressing hGCGR; assay type: cell-based; set-up: expressed in transfected cells; settings: Table 6, peptides modified at position 17; cAMP in CHO hGCGR cells; geometric mean; read-out: hGluc-R EC50
Procedure: as §1, §2, §3

human GLP-1 receptor (hGLP-1R), sequence (P43220 24-463): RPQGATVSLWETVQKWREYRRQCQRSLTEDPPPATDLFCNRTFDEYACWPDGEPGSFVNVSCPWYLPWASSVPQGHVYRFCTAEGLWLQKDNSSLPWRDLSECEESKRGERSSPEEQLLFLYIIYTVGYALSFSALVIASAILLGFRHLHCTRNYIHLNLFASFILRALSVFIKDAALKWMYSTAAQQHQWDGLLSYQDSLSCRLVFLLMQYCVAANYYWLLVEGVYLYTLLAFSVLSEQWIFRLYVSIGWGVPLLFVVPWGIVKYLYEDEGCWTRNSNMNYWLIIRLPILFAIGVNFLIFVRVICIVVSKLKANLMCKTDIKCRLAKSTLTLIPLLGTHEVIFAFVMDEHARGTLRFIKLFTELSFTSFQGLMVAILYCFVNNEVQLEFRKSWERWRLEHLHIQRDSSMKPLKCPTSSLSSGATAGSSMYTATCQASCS
human glucagon receptor (hGCGR), sequence (P47871 26-477): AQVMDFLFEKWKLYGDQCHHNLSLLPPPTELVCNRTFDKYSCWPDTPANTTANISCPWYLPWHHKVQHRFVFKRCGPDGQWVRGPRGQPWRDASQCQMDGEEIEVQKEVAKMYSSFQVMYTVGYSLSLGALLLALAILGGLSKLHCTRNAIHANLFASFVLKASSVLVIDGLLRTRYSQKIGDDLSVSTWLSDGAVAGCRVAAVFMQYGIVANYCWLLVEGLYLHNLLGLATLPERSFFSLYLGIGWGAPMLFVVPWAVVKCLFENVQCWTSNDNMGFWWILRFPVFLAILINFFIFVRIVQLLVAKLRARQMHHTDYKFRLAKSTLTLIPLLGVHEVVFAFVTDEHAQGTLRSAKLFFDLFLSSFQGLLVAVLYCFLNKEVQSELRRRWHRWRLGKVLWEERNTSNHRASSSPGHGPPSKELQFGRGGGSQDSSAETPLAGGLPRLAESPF

Compound	EC50 [1] [nM]	EC50 [2] [nM]	% Relative Potency Ratio ([1]; Table 6)	% Relative Potency Ratio [1]
CC[C@H](C)[C@H](NC(=O)C(C)(C)NC(=O)[C@H](CCC(N)=O)NC(=O)[C@@H](NC(=O)[C@](C)(Cc1ccccc1)NC(=O)[C@H](CC(=O)O)NC(=O)[C@H](CCC(N)=O)NC(=O)[C@H](C)NC(=O)[C@H](C)NC(=O)[C@H](CCCCNC(=O)COCCOCCNC(=O)COCCOCCNC(=O)CC[C@H](NC(=O)CCCCCCCCCCCCCCCCC(=O)O)C(=O)O)NC(=O)[C@H](CO)NC(=O)[C@H](CC(=O)O)NC(=O)[C@H](CC(C)C)NC(=O)C(C)(C)NC(=O)[C@H](CCCCN)NC(=O)[C@H](CO)NC(=O)[C@@H](NC(=O)[C@H](CC(=O)O)NC(=O)[C@H](CO)NC(=O)[C@@H](NC(=O)[C@](C)(Cc1ccccc1)NC(=O)[C@H](CO)NC(=O)CNC(=O)[C@H](CCC(N)=O)NC(=O)[C@H](CO)NC(=O)[C@@H](N)Cc1c[nH]cn1)[C@@H](C)O)C(C)C)C(C)C)C(=O)N[C@@H](C)C(=O)N[C@@H](CC(N)=O)C(N)=O [Peptide 1] (H-HSQGS[αMeF]TSDVSK[Aib]LDSK([AEEA-AEEA-γGlu-C18 diacid])AAQD[αMeF]VQ[Aib]IAN-NH2; N-terminus assumed)	3.2	> 27.1		
CC[C@H](C)[C@H](NC(=O)[C@H](Cc1c[nH]c2ccccc12)NC(=O)[C@H](CCC(N)=O)NC(=O)[C@@H](NC(=O)[C@](C)(Cc1ccccc1)NC(=O)[C@H](CC(=O)O)NC(=O)[C@H](CCC(N)=O)NC(=O)[C@H](C)NC(=O)[C@H](C)NC(=O)[C@H](CCCCNC(=O)COCCOCCNC(=O)COCCOCCNC(=O)CC[C@H](NC(=O)CCCCCCCCCCCCCCCCCCC(=O)O)C(=O)O)NC(=O)[C@H](CO)NC(=O)[C@H](CC(=O)O)NC(=O)[C@H](CC(C)C)NC(=O)[C@](C)(Cc1ccccc1)NC(=O)[C@H](CCCCN)NC(=O)[C@H](CO)NC(=O)[C@@H](NC(=O)[C@H](CC(=O)O)NC(=O)[C@H](CO)NC(=O)[C@@H](NC(=O)[C@](C)(Cc1ccccc1)NC(=O)[C@H](CO)NC(=O)CNC(=O)[C@H](CCC(N)=O)NC(=O)[C@H](CO)NC(=O)[C@@H](N)Cc1c[nH]cn1)[C@@H](C)O)C(C)C)C(C)C)C(=O)N[C@@H](C)C(=O)N[C@@H](CC(N)=O)C(=O)N[C@H](C(N)=O)[C@@H](C)O [Peptide 2] (H-HSQGS[αMeF]TSDVSK[αMeF]LDSK([AEEA-AEEA-γGlu-C20 diacid])AAQD[αMeF]VQWIANT-NH2; N-terminus assumed)	1.28	4.19	6.5	
CC[C@H](C)[C@H](NC(=O)[C@H](Cc1c[nH]c2ccccc12)NC(=O)[C@H](CCC(N)=O)NC(=O)[C@@H](NC(=O)[C@H](Cc1ccccc1)NC(=O)[C@H](CC(=O)O)NC(=O)[C@H](CCC(N)=O)NC(=O)[C@H](C)NC(=O)[C@H](C)NC(=O)[C@H](CCCCNC(=O)CC[C@H](NC(=O)CCCCCCCCCCCCCCCCC(=O)O)C(=O)O)NC(=O)[C@H](CO)NC(=O)[C@H](CC(=O)O)NC(=O)[C@H](CC(C)C)NC(=O)[C@](C)(Cc1ccccc1)NC(=O)[C@H](CCCCN)NC(=O)[C@H](CO)NC(=O)[C@@H](NC(=O)[C@H](CC(=O)O)NC(=O)[C@H](CO)NC(=O)[C@@H](NC(=O)[C@](C)(Cc1ccccc1)NC(=O)[C@H](CO)NC(=O)CNC(=O)[C@H](CCC(N)=O)NC(=O)[C@H](CO)NC(=O)[C@@H](N)Cc1c[nH]cn1)[C@@H](C)O)C(C)C)C(C)C)C(=O)N[C@@H](C)C(=O)N[C@@H](CC(N)=O)C(=O)N[C@H](C(N)=O)[C@@H](C)O [Peptide 3] (H-HSQGS[αMeF]TSDVSK[αMeF]LDSK([γGlu-C18 diacid])AAQDFVQWIANT-NH2; N-terminus assumed)	0.069	0.149	4.3	
CC[C@H](C)[C@H](NC(=O)[C@H](Cc1c[nH]c2ccccc12)NC(=O)[C@H](CCC(N)=O)NC(=O)[C@@H](NC(=O)[C@H](Cc1ccccc1)NC(=O)[C@H](CC(=O)O)NC(=O)[C@H](CCC(N)=O)NC(=O)[C@H](C)NC(=O)[C@H](C)NC(=O)[C@H](CCCCNC(=O)COCCOCCNC(=O)COCCOCCNC(=O)CC[C@H](NC(=O)CCCCCCCCCCCCCCCCC(=O)O)C(=O)O)NC(=O)[C@H](CO)NC(=O)[C@H](CC(=O)O)NC(=O)[C@H](CC(C)C)NC(=O)[C@](C)(Cc1ccccc1)NC(=O)[C@H](CCCCN)NC(=O)[C@H](CO)NC(=O)[C@@H](NC(=O)[C@H](CC(=O)O)NC(=O)[C@H](CO)NC(=O)[C@@H](NC(=O)[C@](C)(Cc1ccccc1)NC(=O)[C@H](CO)NC(=O)CNC(=O)[C@H](CCC(N)=O)NC(=O)[C@H](CO)NC(=O)[C@@H](N)Cc1c[nH]cn1)[C@@H](C)O)C(C)C)C(C)C)C(=O)N[C@@H](C)C(=O)N[C@@H](CC(N)=O)C(=O)N[C@H](C(N)=O)[C@@H](C)O [Peptide 4] (H-HSQGS[αMeF]TSDVSK[αMeF]LDSK([AEEA-AEEA-γGlu-C18 diacid])AAQDFVQWIANT-NH2)	0.24	1.17	9.6	
CC[C@H](C)[C@H](NC(=O)C(C)(C)NC(=O)[C@H](CCC(N)=O)NC(=O)[C@@H](NC(=O)[C@](C)(Cc1ccccc1)NC(=O)[C@H](CC(=O)O)NC(=O)[C@H](CCC(N)=O)NC(=O)[C@H](C)NC(=O)[C@H](C)NC(=O)[C@H](CCCCNC(=O)COCCOCCNC(=O)COCCOCCNC(=O)CC[C@H](NC(=O)CC[C@H](NC(=O)CCCCCCCCCCCCCCCCC(=O)O)C(=O)O)C(=O)O)NC(=O)[C@H](CO)NC(=O)[C@H](CC(=O)O)NC(=O)[C@H](CC(C)C)NC(=O)[C@](C)(Cc1ccccc1)NC(=O)[C@H](CCCCN)NC(=O)[C@H](CO)NC(=O)[C@@H](NC(=O)[C@H](CC(=O)O)NC(=O)[C@H](CO)NC(=O)[C@@H](NC(=O)[C@](C)(Cc1ccccc1)NC(=O)[C@H](CO)NC(=O)CNC(=O)[C@H](CCC(N)=O)NC(=O)C(C)(C)NC(=O)[C@@H](N)Cc1c[nH]cn1)[C@@H](C)O)C(C)C)C(C)C)C(=O)N[C@@H](C)C(=O)N[C@@H](CC(N)=O)C(N)=O [Peptide 5] (H-H[Aib]QGS[αMeF]TSDVSK[αMeF]LDSK([AEEA-AEEA-γGlu-γGlu-C18 diacid])AAQD[αMeF]VQ[Aib]IAN-NH2; N-terminus assumed)	0.283	7.14	49.9	
CC[C@H](C)[C@H](NC(=O)[C@H](Cc1c[nH]c2ccccc12)NC(=O)[C@H](CCC(=O)O)NC(=O)[C@@H](NC(=O)[C@](C)(Cc1ccccc1)NC(=O)[C@H](CC(=O)O)NC(=O)[C@H](CCC(N)=O)NC(=O)[C@H](C)NC(=O)[C@H](C)NC(=O)[C@H](CCCCNC(=O)COCCOCCNC(=O)COCCOCCNC(=O)CC[C@H](NC(=O)CCCCCCCCCCCCCCCCC(=O)O)C(=O)O)NC(=O)[C@H](CO)NC(=O)[C@H](CC(=O)O)NC(=O)[C@H](CC(C)C)NC(=O)[C@](C)(Cc1ccccc1)NC(=O)[C@H](CCCCN)NC(=O)[C@H](CO)NC(=O)[C@@H](NC(=O)[C@H](CC(=O)O)NC(=O)[C@H](CO)NC(=O)[C@@H](NC(=O)[C@](C)(Cc1ccccc1)NC(=O)[C@H](CO)NC(=O)CNC(=O)[C@H](Cc1c[nH]cn1)NC(=O)C(C)(C)NC(=O)[C@@H](N)Cc1c[nH]cn1)[C@@H](C)O)C(C)C)C(C)C)C(=O)N[C@@H](C)C(=O)N[C@@H](CC(N)=O)C(N)=O [Peptide 6] (H-H[Aib]HGS[αMeF]TSDVSK[αMeF]LDSK([AEEA-AEEA-γGlu-C18 diacid])AAQD[αMeF]VEWIAN-NH2; N-terminus assumed)	0.568	0.516	1.8	
CC(C)C[C@H](NC(=O)[C@H](Cc1c[nH]c2ccccc12)NC(=O)[C@H](CCC(N)=O)NC(=O)[C@@H](NC(=O)[C@H](Cc1ccccc1)NC(=O)[C@H](CC(=O)O)NC(=O)[C@H](CCC(N)=O)NC(=O)[C@H](C)NC(=O)[C@H](CCCNC(=N)N)NC(=O)[C@H](CCCCNC(=O)COCCOCCNC(=O)COCCOCCNC(=O)CC[C@H](NC(=O)CC[C@H](NC(=O)CCCCCCCCCCCCCCCCC(=O)O)C(=O)O)C(=O)O)NC(=O)[C@H](CO)NC(=O)[C@H](CC(=O)O)NC(=O)[C@H](CC(C)C)NC(=O)[C@](C)(Cc1ccccc1)NC(=O)[C@H](CCCCN)NC(=O)[C@H](CO)NC(=O)[C@@H](NC(=O)[C@H](CC(=O)O)NC(=O)[C@H](CO)NC(=O)[C@@H](NC(=O)[C@H](Cc1ccccc1)NC(=O)[C@@H](NC(=O)CNC(=O)[C@H](CCC(N)=O)NC(=O)C(C)(C)NC(=O)[C@@H](N)Cc1c[nH]cn1)[C@@H](C)O)[C@@H](C)O)C(C)C)C(C)C)C(=O)N[C@@H](CC(C)C)C(=O)NC(C)(C)C(=O)N[C@H](C(N)=O)[C@@H](C)O [Peptide 463] (H-H[Aib]QGTFTSDVSK[αMeF]LDSK([AEEA-AEEA-γGlu-γGlu-C18 diacid])RAQDFVQWLL[Aib]T-NH2; N-terminus assumed)	0.274			
H(Aib)HGS(αMePhe)TSDK(O20C-O2OC-γE-γE-C20diacid)10SK(αMePhe)LDSRAAQD(αMePhe)VQ(Aib)IANT-amide [Peptide 391]				49.1
